Structures can show the parent of a compound that is named as a salt.
Target: T1, iNOS in human cartilage explants (Homo sapiens, UniProt P35228)
T1 construct: from tissue; host or cells: human cartilage explants stimulated with recombinant human IL-1β
Experiment: Human cartilage explant assay (IL-1β-induced nitrite production)
Assay type: cell-based
Details: inhibition of nitrite production, IL-1β-stimulated explants; averages across all experiments and all lots
Procedure: Human Cartilage Explant Assay
Cartilage was cut into small explants of approximately 15-45 mg in weight and one or two explants per well are placed into either 96 or 48 well culture plates with 200-500 μL of culture media per well. The culture media was either a custom modification of Minimum Essential Medium(Eagle) with Earle's salts (GibcoBRL) prepared without L-Arginine, without L-Glutamine and without phenol red or a custom modification of serumless Neuman and Tytell (GibcoBRL) medium prepared without L-arginine, without insulin, without ascorbic acid, without L-glutamine and without phenol red. Both are supplemented before use with 100 μM L-Arginine (Sigma), 2 mM L-glutamine, 1×HL-1 supplement (BioWhittaker), 50 mg/ml ascorbic acid (Sigma) and 150 pg/ml recombinant human IL-1β (RD Systems) to induce nitric oxide synthase. Compounds are then added in 10 μL aliquots and the explants incubated at 37° C. with 5% CO2 for 18-24 hours. The day old supernatant is then discarded and replaced with fresh culture media containing recombinant human IL-1β and compound and incubated for another 20-24 hours. This supernatant is analyzed for nitrite with a fluorometric assay (Misko et al, Anal. Biochem., 214, 11-16, 1993). […] IC50 values (Table 1) are determined from plotting the percent inhibition of nitrite production at six different concentrations of inhibitor.

Row | Structure (SMILES) | IC50 [nM]
1 | CC(=N)NCCSC[C@](C)(N)C(=O)O [Example 1, S-[2-[(1-Iminoethyl)amino]ethyl]-2-methyl-L-cysteine, dihydrochloride] | 700
2 | CC(=N)NCCSCC(C)(N)C(=O)O (stereo not drawn) [Example 16, S-[2-(1-Iminoethylamino)ethyl]-2-methyl-(D/L)-cysteine, bistrifluoroacetate] | 700

Source: US6914158B2, “Amidino compounds useful as nitric oxide synthase inhibitors” (Pharmacia Corporation, priority 2000, dated 2005)
